Here are results for eleven compounds from patent publication US20110112100A1, “Hepatitis C Virus Inhibitors” (priority 2009, published 2011).

Each structure is given as a SMILES string. Counter-ions that a name gives are not always drawn. Like-named read-outs stand apart in the source and are kept apart here.

One may read the IC50 as the concentration at which inhibition is half-maximal. What is called CC50 is the concentration at which the toxic effect on the cells reaches its halfway point. Higher therefore signals lower toxicity to the cells.

Data set [1] relates to 1b (con1) replicon cells. In words: HCV 1b replicon inhibitory activity (luciferase, Britelite Plus). Type of data set: cell-based, hepatitis C virus. As to conditions: Hepatitis C virus, read-out: IC50 value (95% Confidence Intervals) pM Replicon 1B assay. In outline: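 1b (con1) luciferase replicon cells in DMEM + 10% FCS were exposed to 1-in-3 DMSO compound dilutions for 48 h at 37° C, 5% CO2. Luminescence was read 1-15 min after Britelite Plus addition; EC50 came from log concentration-response curves.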
(In general: Replicon systems follow genome replication, usually without infectious particles.)

Data set [2] has as its system 1a-H77 replicon cells. Kind of data set: HCV 1a replicon inhibitory activity (Renilla luciferase). As to conditions: Hepatitis C virus, read-out: IC50 value (95% Confidence Intervals) pM Replicon 1A assay. The data set is classed as cell-based, hepatitis C virus. In outline: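 Replicon cells in DMEM + 10% FCS incubated 48 hours at 37° C., 5% CO2 with 1-in-3 serial dilutions of compound prepared in DMSO. Replication read as Renilla luciferase luminescence after lysis. EC50 taken from log concentration-response curves.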

A short description of data set [3]: Compound induced cytotoxicity in HCV replicon cell lines (WST-1 reagent). Type of data set: cell-based. The conditions noted are these: human. The method, then: Test compounds were solubilised to 4 mM in 100% DMSO. Dilutions were made to the desired starting concentration in 100% DMSO and then 1 in 3 dilutions made, again in 100% DMSO. 0.5 μl of each sample was added to 384-well assay plates. White Lumitrac (Greiner) plates were used for the 1a and 1b replicon assays and black, clear bottomed (Greiner) plates were used for the WST-1 cytotoxity assay.
1b (con1) replicon cells were resuspended to a concentration of 1.4×10^5 cells/ml by addition of pre-warmed medium (DMEM+10% FCS). 50 μl of this suspension was added to each well of a 384-well assay plate (Black, clear bottomed, Greiner) already containing 0.5 μl of test compound.
All plates were covered with gas permeable seals and incubated at 37° C., 5% CO2 for 48 hours. After 48 hours, 5 μl WST-1 reagent (Roche, 11 644 807 001) was added to each well and the plate returned to the incubator for 3 hours. After this incubation period absorbance was read at 450 nm on an EnVision (Perkin Elmer) plate reader. The half maximal cytotoxic concentration (CC50) values were calculated for each compound by constructing log concentration-response curves.
All of the exemplified compounds have been screened in a cell proliferation assay (WST-1). A majority have […] in at least 2 independent experiments, the exceptions being the compounds of examples 1, 10, 12, 23, 25, 37, 47, 48, 49, 52, 56, 57, 58, 60, 67, 68, 69, 70, 71, 72, 73, 74, 79, 81 and 84 which have CC50 values>2 μM in 1 experiment, and example 20 where the CC50 is reported as >10 nM (in this instance the top concentration tested in the assay was 10 nM).

The mark [4] stands for this setting: geometric mean, 95% confidence intervals in parentheses, 48 hours, medium with 10% FCS.
Setting [5] is: 1b (con1) HCV replicon cells, WST-1, 48 hours, in 1 experiment.

Regarding `CC[C@H](NC(=O)OC)C(=O)N1CCC[C@H]1c1ncc(-c2ccc(-c3ccc4cc(-c5cnc([C@@H]6CCCN6C(=O)[C@H](CC)NC(=O)OC)[nH]5)ccc4c3)cc2)[nH]1` [Example 25, Methyl {(2S)-1-[(2S)-2-{5-[4-(6-{2-[(2S)-1-{(2S)-2-[(methoxycarbonyl)amino]butanoyl}pyrrolidin-2-yl]-1H-imidazol-5-yl}naphthalen-2-yl)phenyl]-1H-imidazol-2-yl}pyrrolidin-1-yl]-1-oxobutan-2-yl}carbamate], the IC50 in data set [1] (setting [4]) was 10.8 pM; in data set [2] (setting [4]), 88.8 pM. For the same compound, the half-maximal cytotoxic concentration (CC50) at 48 h in data set [3] (setting [5]) was greater than 2000 nM.

On to `COC(=O)N[C@H](C(=O)N1CCC[C@H]1c1nc(-c2ccc(-c3cnc4cc(-c5cnc([C@@H]6CCCN6C(=O)[C@H](Cc6ccccc6)NC(C)=O)[nH]5)ccc4n3)cc2)c[nH]1)C(C)C` [Example 47, Methyl {(2S)-1-[(2S)-2-{4-[4-(6-{2-[(2S)-1-(N-acetyl-L-phenylalanyl)pyrrolidin-2-yl]-1H-imidazol-5-yl}quinoxalin-2-yl)phenyl]-1H-imidazol-2-yl}pyrrolidin-1-yl]-3-methyl-1-oxobutan-2-yl}carbamate trifluoroacetic acid salt], for which the IC50 in data set [1] (48 h) came out at 52.8 pM; in data set [2] (48 h) it was 6850 pM. The CC50 at 48 h in data set [3] (setting [5]) was greater than 2000 nM.

As to `COC(=O)N[C@@H](Cc1ccccc1)C(=O)N1CCC[C@H]1c1ncc(-c2ccc3nc(-c4ccc(-c5c[nH]c([C@@H]6CCCN6C(=O)[C@@H](NC(=O)OC)C(C)C)n5)cc4)cnc3c2)[nH]1` [Example 49, Methyl {(2S)-1-[(2S)-2-{5-[2-(4-{2-[(2S)-1-{(2S)-2-[(methoxycarbonyl)amino]-3-methylbutanoyl}pyrrolidin-2-yl]-1H-imidazol-4-yl}phenyl)quinoxalin-6-yl]-1H-imidazol-2-yl}pyrrolidin-1-yl]-1-oxo-3-phenylpropan-2-yl}carbamate trifluoroacetic acid salt], the results for the IC50 in data set [1] (48 h) and in data set [2] (48 h) were 7.27 pM and 73 pM, respectively. For the same compound, in data set [3] (setting [5]), the CC50 at 48 h was greater than 2000 nM.

Consider `COC(=O)N[C@H](C(=O)N1CCC[C@H]1c1ncc(-c2ccc(-c3ncc4cc(-c5cnc([C@@H]6CCCN6C(=O)[C@@H](NC(=O)OC)C(C)C)[nH]5)ccc4n3)nc2)[nH]1)C(C)C` [Example 20, Methyl {(2S)-1-[(2S)-2-{5-[2-(5-{2-[(2S)-1-{(2S)-2-[(methoxycarbonyl)amino]-3-methylbutanoyl}pyrrolidin-2-yl]-1H-imidazol-5-yl}pyridin-2-yl)quinazolin-6-yl]-1H-imidazol-2-yl}pyrrolidin-1-yl]-3-methyl-1-oxobutan-2-yl}carbamate], for which the IC50 stood at 127 pM in data set [1] (setting [4]) and 1720 pM in data set [2] (setting [4]). The half-maximal cytotoxic concentration (CC50) at 48 h in data set [3] (1b (con1) HCV replicon cells, WST-1, top concentration tested in the assay was 10 nM) was greater than 10 nM.

On to `COC(=O)N[C@H](C(=O)N1CCC[C@H]1c1nc(-c2ccc(-c3cnc4cc(-c5cnc([C@@H]6CCCN6C(=O)[C@@H](NC(=O)OC)[C@@H](C)O)[nH]5)ccc4n3)cc2)c[nH]1)C(C)C` [Example 60, Methyl {(2S)-1-[(2S)-2-{4-[4-(6-{2-[(2S)-1-{(2S,3R)-3-hydroxy-2-[(methoxycarbonyl)amino]butanoyl}pyrrolidin-2-yl]-1H-imidazol-5-yl}quinoxalin-2-yl)phenyl]-1H-imidazol-2-yl}pyrrolidin-1-yl]-3-methyl-1-oxobutan-2-yl}carbamate trifluoroacetic acid salt], for which the IC50 was found to be 23.7 pM in data set [1] (48 h) and 22.3 pM in data set [2] (48 h). In addition, in data set [3] (WST-1, 48 hours, in 1 experiment), the CC50 at 48 h was greater than 2000 nM.

Turning to `COC(=O)NC(C(=O)N1CCC[C@H]1c1ncc(-c2ccc3nc(-c4ccc(-c5c[nH]c([C@@H]6CCCN6C(=O)[C@@H](NC(=O)OC)C(C)C)n5)cc4)cnc3c2)[nH]1)C1CCOCC1` (stereo partly drawn) [Example 71, Methyl {(2S)-1-[(2S)-2-{4-[4-(6-{2-[(2S)-1-{[(methoxycarbonyl)amino](tetrahydro-2H-pyran-4-yl)acetyl}pyrrolidin-2-yl]-1H-imidazol-5-yl}quinoxalin-2-yl)phenyl]-1H-imidazol-2-yl}pyrrolidin-1-yl]-3-methyl-1-oxobutan-2-yl}carbamate], the IC50 came to 23.7 pM in data set [1] (setting [4]) and 30.7 pM in data set [2] (setting [4]). In addition, in data set [3] (setting [5]), the CC50 at 48 h was greater than 2000 nM.

Consider `CCC[C@H](NC(C)=O)C(=O)N1CCC[C@H]1c1ncc(-c2ccc3nc(-c4ccc(-c5c[nH]c([C@@H]6CCCN6C(=O)[C@@H](NC(=O)OC)C(C)C)n5)cc4)cnc3c2)[nH]1` [Example 37, Methyl {(2S)-1-[(2S)-2-{4-{4-[6-(2-{(2S)-1-(N-acetyl-L-norvalyl)pyrrolidin-2-yl]-1H-imidazol-5-yl)quinoxalin-2-yl)phenyl]-1H-imidazol-2-yl}pyrrolidin-1-yl]-3-methyl-1-oxobutan-2-yl}carbamate trifluoroacetic acid salt], for which the IC50 stood at 42.9 pM in data set [1] (48 h) and 284 pM in data set [2] (48 h). The same compound came in with a 50% cytotoxic concentration (CC50) at 48 h in data set [3] (setting [5]) greater than 2000 nM.

As for `CC[C@H](NC(=O)OC)C(=O)N1CCC[C@H]1c1nc(-c2ccc(-c3cnc4cc(-c5cnc([C@@H]6CCCN6C(=O)[C@H](CC)NC(=O)OC)[nH]5)cnc4c3)cc2)c[nH]1` [Example 12, Methyl {(2S)-1-[(2S)-2-{4-[4-(7-{2-[(2S)-1-{(2S)-2-[(methoxycarbonyl)amino]butanoyl}pyrrolidin-2-yl]-1H-imidazol-5-yl}-1,5-naphthyridin-3-yl)phenyl]-1H-imidazol-2-yl}pyrrolidin-1-yl]-1-oxobutan-2-yl}carbamate], the values for the IC50 in data set [1] (setting [4]) and in data set [2] (setting [4]) were 358 pM and 3100 pM, respectively. Besides, the CC50 at 48 h in data set [3] (setting [5]) was greater than 2000 nM.

With `COC(=O)N[C@H](C(=O)N1CCC[C@H]1c1ncc(-c2ccc3nc(-c4ccc(-c5c[nH]c([C@@H]6CCCN6C(=O)[C@@H](NC(=O)OC)C(C)C)n5)cc4)cnc3c2)[nH]1)c1ccccc1` [Example 56, Methyl {(2S)-1-[(2S)-2-{4-[4-(6-(2-[(2S)-1-{(2S)-2-[(methoxycarbonyl)amino]-2-phenylacetyl}pyrrolidin-2-yl]-1H-imidazol-5-yl}quinoxalin-2-yl)phenyl]-1H-imidazol-2-yl}pyrrolidin-1-yl]-3-methyl-1-oxobutan-2-yl}carbamate trifluoroacetic acid salt], the half-inhibitory concentration (IC50) was determined as 10.2 pM in data set [1] (48 h) and 26.3 pM in data set [2] (48 h). This compound also had a CC50 at 48 h in data set [3] (setting [5]) greater than 2000 nM.

On to `COC(=O)N[C@H](C(=O)N1CCC[C@H]1c1nc(-c2ccc(-c3cnc4cc(-c5cnc([C@@H]6CCCN6C(=O)[C@@H](NC(=O)OC)[C@@H](C)OC(C)(C)C)[nH]5)ccc4n3)cc2)c[nH]1)C(C)C` [Example 74, Methyl {(2S)-1-[(2S)-2-{4-[4-(6-{2-[(2S)-1-{(2S,3R)-3-tert-butoxy-2-[(methoxycarbonyl)amino]butanoyl}pyrrolidin-2-yl]-1H-imidazol-5-yl}quinoxalin-2-yl)phenyl]-1H-imidazol-2-yl}pyrrolidin-1-yl]-3-methyl-1-oxobutan-2-yl)carbamate], for which the IC50 came out at 14.2 pM in data set [1] (setting [4]) and 43.7 pM in data set [2] (setting [4]). The compound also showed a 50% cytotoxic concentration (CC50) at 48 h in data set [3] (setting [5]) greater than 2000 nM.

`CC[C@H](NC(=O)OC)C(=O)N1CCC[C@H]1c1ncc(-c2ccc3nc(-c4ccc(-c5c[nH]c([C@@H]6CCCN6C(=O)[C@@H](NC(=O)OC)C(C)C)n5)cc4)cnc3c2)[nH]1` [Example 52, Methyl {(2S)-1-[(2S)-2-{4-[4-(6-{2-[(2S)-1-{(2S)-2-[(methoxycarbonyl)amino]butanoyl}pyrrolidin-2-yl]-1H-imidazol-5-yl}quinoxalin-2-yl)phenyl]-1H-imidazol-2-yl}pyrrolidin-1-yl]-3-methyl-1-oxobutan-2-yl}carbamate trifluoroacetic acid salt]: the results for the concentration for half-maximal inhibition (IC50) in data set [1] (48 h) and in data set [2] (48 h) were 16.6 pM and 22.1 pM, respectively. The compound also showed a CC50 at 48 h in data set [3] (setting [5]) greater than 2000 nM.
